According to patent US10391112B2, “Cationic polymers as co-drugs for chemotherapeutic agents” (Northeastern University, priority 2015, dated 2019):

Test system: MDA-MB-231
Assay: alamar-blue cell viability / cytotoxicity of PEI, doxorubicin and mixtures
Format: cell-based, human
Protocol: All cells were maintained at 37° C. in a humidified incubator with 5% CO2. MDA-MB-231 growing in the DMEM medium were harvested by trypsin-EDTA, and an initial concentration of 1×106 and further dilutions were made and seeded into wells of a 96-well plate (100 μL for each well). The medium without cells was used as negative control, and the plate was incubated for 18 h to allow cell attachment. Then another 100 μL, medium with desirable concentration drug were added into the well. After 24 h and 48 h incubation, 22 μL of alamar-blue (0.5 mg per mL) was added to each well. The absorbance was measured after further 4 h incubation at 530 nm and 590 nm using PowerwaveXPS plate reader. The plate was also incubated for the following 24 hours to measure the maximum dye reduction. Percentage reduction of alamar-blue is typically calculated using equation (1):
[formula] where At, An and Ac are recorded absorbance of test wells for test group, negative control group and positive control group.
Referring to FIG. 2, the cell viability is shown as a function of the molecular weight of the cationic polymer. […] All cells were maintained at 37° C. in a humidified incubator with 5% CO2. MDA-MB-231, 4T1 and HUVECs, HCC-1806, Hs-587T, MCF-7 cells growing in the log phase of growth were harvested by trypsin-EDTA, and an initial concentration of 1×10^6 and further dilutions were made and seeded into wells of a 96-well plate (100 μL, for each well). The medium without cells was used as negative control, and the plate was incubated for 18 h to allow cell attachment. Then another 100 μL medium with desirable concentration drug were added into the well. After 24 h and 48 h incubation, 22 μL, of alamar-blue (0.5 mg per mL) was added to each well. The absorbance was measured after further 4 h incubation at 530 nm and 590 nm using Powerwave XPS plate reader. The plate was also incubated for the following 24 hours to measure the maximum dye reduction. Percentage reduction of alamar-blue is typically calculated using equation (1).

COc1cccc2c1C(=O)c1c(O)c3c(c(O)c1C2=O)C[C@@](O)(C(=O)CO)C[C@@H]3O[C@H]1C[C@H](N)[C@H](O)[C@H](C)O1 [doxorubicin]
cell viability (FIG. 1, drug concentrations between 0 μM and 5 μM): approximately 70%
cell viability (FIG. 2, 0.3 to 0.6 μg doxorubicin per well, 0 μg of PEI): 60-70%
cell viability (FIG. 3 line 304, doxorubicin less than 5 μM): about 70%
